Laboratory results as given in ChEMBL document CHEMBL6114980, “Single or double lipid-modified ultra-short antimicrobial peptides for treating infections caused by resistant bacteria” (Eur J Med Chem, 2025).
Converted amounts (≈) assume the structure as drawn. Peptide text beside a SMILES is read from it. * marks the point of attachment. Myristoyl = CCCCCCCCCCCCCC(=O)*; Lauroyl = CCCCCCCCCCCC(=O)*; Decanoyl = CCCCCCCCCC(=O)*; Octanoyl = CCCCCCCC(=O)*; Hexanoyl = CCCCCC(=O)*; Butyryl = CCCC(=O)*

What was measured:
Type in all cases: functional
Conditions in all cases: time 18-24 hrs
Acinetobacter baumannii = assay: Antibacterial activity against Acinetobacter baumannii ATCC 19606 assessed as reduction in bacterial growth incubated for 18 to 24 hrs by broth microdilution method
Klebsiella pneumoniae = assay: Antibacterial activity against Klebsiella pneumoniae ATCC 700603 assessed as reduction in bacterial growth incubated for 18 to 24 hrs by broth microdilution method
Escherichia coli = assay: Antibacterial activity against Escherichia coli ATCC 25922 assessed as reduction in bacterial growth incubated for 18 to 24 hrs by broth microdilution method
Pseudomonas aeruginosa = assay: Antibacterial activity against Pseudomonas aeruginosa ATCC 27853 assessed as reduction in bacterial growth incubated for 18 to 24 hrs by broth microdilution method
Enterococcus faecalis = assay: Antibacterial activity against Enterococcus faecalis ATCC 29212 assessed as reduction in bacterial growth incubated for 18 to 24 hrs by broth microdilution method
[1] = tested on: Staphylococcus epidermidis; assay: Antibacterial activity against Staphylococcus epidermidis ATCC 12228 assessed as reduction in bacterial growth incubated for 18 to 24 hrs by broth microdilution method
Bacillus subtilis = assay: Antibacterial activity against Bacillus subtilis ATCC 23857 assessed as reduction in bacterial growth incubated for 18 to 24 hrs by broth microdilution method
Staphylococcus aureus = assay: Antibacterial activity against Staphylococcus aureus ATCC 25923 assessed as reduction in bacterial growth incubated for 18 to 24 hrs by broth microdilution method

Compound: CCCCCCCCCCCCCC(=O)NCCCC[C@H](NC(=O)CCCCCCCCCCCCC)C(=O)N[C@@H](CCCCN)C(=O)N[C@@H](CCCCN)C(=O)N[C@@H](Cc1c[nH]c2ccccc12)C(=O)N[C@@H](Cc1c[nH]c2ccccc12)C(N)=O (Myristoyl-K(Myristoyl)KKWW-NH2)
- MIC (Acinetobacter baumannii): 128 µM (≈ 153 µg/mL)
- MIC (Klebsiella pneumoniae): 128 µM (≈ 153 µg/mL)
- MIC (Escherichia coli): 128 µM (≈ 153 µg/mL)
- MIC (Pseudomonas aeruginosa): 128 µM (≈ 153 µg/mL)
- MIC (Enterococcus faecalis): 128 µM (≈ 153 µg/mL)
- MIC [1]: 128 µM (≈ 153 µg/mL)
- MIC (Bacillus subtilis): 128 µM (≈ 153 µg/mL)
- MIC (Staphylococcus aureus): 128 µM (≈ 153 µg/mL)

Compound: CCCCCC(=O)N[C@@H](CCCCN)C(=O)N[C@@H](CCCCN)C(=O)N[C@@H](Cc1c[nH]c2ccccc12)C(=O)N[C@@H](Cc1c[nH]c2ccccc12)C(N)=O (Hexanoyl-KKWW-NH2)
- MIC (Acinetobacter baumannii): 128 µM (≈ 95.2 µg/mL)
- MIC (Klebsiella pneumoniae): 128 µM (≈ 95.2 µg/mL)
- MIC (Escherichia coli): 128 µM (≈ 95.2 µg/mL)
- MIC (Pseudomonas aeruginosa): 128 µM (≈ 95.2 µg/mL)
- MIC (Enterococcus faecalis): 128 µM (≈ 95.2 µg/mL)
- MIC [1]: 128 µM (≈ 95.2 µg/mL)
- MIC (Bacillus subtilis): 128 µM (≈ 95.2 µg/mL)
- MIC (Staphylococcus aureus): 128 µM (≈ 95.2 µg/mL)

Compound: CCCCCCCCCC(=O)N[C@@H](CCCCN)C(=O)N[C@@H](CCCCN)C(=O)N[C@@H](Cc1c[nH]c2ccccc12)C(=O)N[C@@H](Cc1c[nH]c2ccccc12)C(N)=O (Decanoyl-KKWW-NH2)
- MIC (Acinetobacter baumannii): 32 µM (≈ 25.6 µg/mL)
- MIC (Klebsiella pneumoniae): 32 µM (≈ 25.6 µg/mL)
- MIC (Escherichia coli): 16 µM (≈ 12.8 µg/mL)
- MIC (Pseudomonas aeruginosa): 8 µM (≈ 6.4 µg/mL)
- MIC (Enterococcus faecalis): 32 µM (≈ 25.6 µg/mL)
- MIC [1]: 16 µM (≈ 12.8 µg/mL)
- MIC (Bacillus subtilis): 4 µM (≈ 3.2 µg/mL)
- MIC (Staphylococcus aureus): 16 µM (≈ 12.8 µg/mL)

Compound: CCCCCC(=O)NCCCC[C@H](NC(=O)CCCCC)C(=O)N[C@@H](CCCCN)C(=O)N[C@@H](CCCCN)C(=O)N[C@@H](Cc1c[nH]c2ccccc12)C(=O)N[C@@H](Cc1c[nH]c2ccccc12)C(N)=O (Hexanoyl-K(Hexanoyl)KKWW-NH2)
- MIC (Acinetobacter baumannii): 128 µM (≈ 124 µg/mL)
- MIC (Klebsiella pneumoniae): 128 µM (≈ 124 µg/mL)
- MIC (Escherichia coli): 128 µM (≈ 124 µg/mL)
- MIC (Pseudomonas aeruginosa): 64 µM (≈ 62.1 µg/mL)
- MIC (Enterococcus faecalis): 128 µM (≈ 124 µg/mL)
- MIC [1]: 128 µM (≈ 124 µg/mL)
- MIC (Bacillus subtilis): 64 µM (≈ 62.1 µg/mL)
- MIC (Staphylococcus aureus): 128 µM (≈ 124 µg/mL)

Compound: CCCCCCCC(=O)N[C@@H](CCCCN)C(=O)N[C@@H](CCCCN)C(=O)N[C@@H](Cc1c[nH]c2ccccc12)C(=O)N[C@@H](Cc1c[nH]c2ccccc12)C(N)=O (Octanoyl-KKWW-NH2)
- MIC (Acinetobacter baumannii): 128 µM (≈ 98.8 µg/mL)
- MIC (Klebsiella pneumoniae): 128 µM (≈ 98.8 µg/mL)
- MIC (Escherichia coli): 64 µM (≈ 49.4 µg/mL)
- MIC (Pseudomonas aeruginosa): 16 µM (≈ 12.4 µg/mL)
- MIC (Enterococcus faecalis): 128 µM (≈ 98.8 µg/mL)
- MIC [1]: 32 µM (≈ 24.7 µg/mL)
- MIC (Bacillus subtilis): 4 µM (≈ 3.09 µg/mL)
- MIC (Staphylococcus aureus): 32 µM (≈ 24.7 µg/mL)

Compound: CCCCCCCCCC(=O)NCCCC[C@H](NC(=O)CCCCCCCCC)C(=O)N[C@@H](CCCCN)C(=O)N[C@@H](CCCCN)C(=O)N[C@@H](Cc1c[nH]c2ccccc12)C(=O)N[C@@H](Cc1c[nH]c2ccccc12)C(N)=O (Decanoyl-K(Decanoyl)KKWW-NH2)
- MIC (Acinetobacter baumannii): 16 µM (≈ 17.3 µg/mL)
- MIC (Klebsiella pneumoniae): 128 µM (≈ 139 µg/mL)
- MIC (Escherichia coli): 16 µM (≈ 17.3 µg/mL)
- MIC (Pseudomonas aeruginosa): 16 µM (≈ 17.3 µg/mL)
- MIC (Enterococcus faecalis): 16 µM (≈ 17.3 µg/mL)
- MIC [1]: 8 µM (≈ 8.66 µg/mL)
- MIC (Bacillus subtilis): 8 µM (≈ 8.66 µg/mL)
- MIC (Staphylococcus aureus): 16 µM (≈ 17.3 µg/mL)

Compound: CCCC(=O)NCCCC[C@H](NC(=O)CCC)C(=O)N[C@@H](CCCCN)C(=O)N[C@@H](CCCCN)C(=O)N[C@@H](Cc1c[nH]c2ccccc12)C(=O)N[C@@H](Cc1c[nH]c2ccccc12)C(N)=O (Butyryl-K(Butyryl)KKWW-NH2)
- MIC (Acinetobacter baumannii): 128 µM (≈ 117 µg/mL)
- MIC (Klebsiella pneumoniae): 128 µM (≈ 117 µg/mL)
- MIC (Escherichia coli): 128 µM (≈ 117 µg/mL)
- MIC (Pseudomonas aeruginosa): 128 µM (≈ 117 µg/mL)
- MIC (Enterococcus faecalis): 128 µM (≈ 117 µg/mL)
- MIC [1]: 128 µM (≈ 117 µg/mL)
- MIC (Bacillus subtilis): 128 µM (≈ 117 µg/mL)
- MIC (Staphylococcus aureus): 128 µM (≈ 117 µg/mL)

Compound: CCCC(=O)N[C@@H](CCCCN)C(=O)N[C@@H](CCCCN)C(=O)N[C@@H](Cc1c[nH]c2ccccc12)C(=O)N[C@@H](Cc1c[nH]c2ccccc12)C(N)=O (Butyryl-KKWW-NH2)
- MIC (Acinetobacter baumannii): 128 µM (≈ 91.6 µg/mL)
- MIC (Klebsiella pneumoniae): 128 µM (≈ 91.6 µg/mL)
- MIC (Escherichia coli): 128 µM (≈ 91.6 µg/mL)
- MIC (Pseudomonas aeruginosa): 128 µM (≈ 91.6 µg/mL)
- MIC (Enterococcus faecalis): 128 µM (≈ 91.6 µg/mL)
- MIC [1]: 128 µM (≈ 91.6 µg/mL)
- MIC (Bacillus subtilis): 128 µM (≈ 91.6 µg/mL)
- MIC (Staphylococcus aureus): 128 µM (≈ 91.6 µg/mL)

Compound: CCCCCCCCCCCC(=O)NCCCC[C@H](NC(=O)CCCCCCCCCCC)C(=O)N[C@@H](CCCCN)C(=O)N[C@@H](CCCCN)C(=O)N[C@@H](Cc1c[nH]c2ccccc12)C(=O)N[C@@H](Cc1c[nH]c2ccccc12)C(N)=O (Lauroyl-K(Lauroyl)KKWW-NH2)
- MIC (Acinetobacter baumannii): 128 µM (≈ 146 µg/mL)
- MIC (Klebsiella pneumoniae): 128 µM (≈ 146 µg/mL)
- MIC (Escherichia coli): 128 µM (≈ 146 µg/mL)
- MIC (Pseudomonas aeruginosa): 128 µM (≈ 146 µg/mL)
- MIC (Enterococcus faecalis): 128 µM (≈ 146 µg/mL)
- MIC [1]: 128 µM (≈ 146 µg/mL)
- MIC (Bacillus subtilis): 128 µM (≈ 146 µg/mL)
- MIC (Staphylococcus aureus): 128 µM (≈ 146 µg/mL)
